Experimental data taken from patent publication US20250122225A1, “MASP-2 INHIBITORS AND METHODS OF USE” (Omeros Corporation, priority 2023, published 2025).
Counter-ions that a name gives are not always drawn.

Legend:
MASP-2 (CCP1-CCP2-SP) = target: T1, MASP-2 (CCP1-CCP2-SP) (Homo sapiens, UniProt O00187); experiment: Enzymatic assay for MASP-2 inhibitory activity (fluorogenic substrate); assay type: biochemical
T1 construct: 15 μL of Enzyme MASP-2 (CCP1-CCP2-SP) in Assay Buffer
In short: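 Fluorescence was normalized between no-enzyme and DMSO-only controls to derive % activity, with IC50 taken as equivalent to Ki except for tight-binding inhibitors. Reactions ran 20 min at room temperature in HEPES pH 7.4/NaCl/Tween 20 buffer, using the C2-derived fluorogenic substrate, before acetic acid stop.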

human α-thrombin = target: T2, human α-thrombin (Homo sapiens, UniProt P00734); experiment: Enzymatic assay for thrombin (fluorogenic peptide substrate Boc-VPR-AMC); assay type: biochemical
T2 construct: enzyme (human α-thrombin (BioPharm® Lab.)) in assay buffer; purchased BioPharm® Lab
In short: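 Assay conditions kept the reaction linear in time, enzyme and substrate, so IC50 approximated Ki apart from tight- or slow-binding cases. Boc-VPR-AMC cleavage by human α-thrombin proceeded 20 min at room temperature in Hepes pH 7.4/NaCl/Tween 20 buffer, then was acid-quenched and read by fluorescence.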

T1 sequence (O00187 445-686 limits assumed): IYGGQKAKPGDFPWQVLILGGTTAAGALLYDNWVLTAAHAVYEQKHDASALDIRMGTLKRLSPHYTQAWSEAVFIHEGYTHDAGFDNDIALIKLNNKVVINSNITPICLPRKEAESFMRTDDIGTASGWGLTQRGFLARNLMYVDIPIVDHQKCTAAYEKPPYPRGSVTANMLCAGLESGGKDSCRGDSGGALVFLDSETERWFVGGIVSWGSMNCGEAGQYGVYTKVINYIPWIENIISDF
T1 sequence (O00187 287-444 partner limits assumed): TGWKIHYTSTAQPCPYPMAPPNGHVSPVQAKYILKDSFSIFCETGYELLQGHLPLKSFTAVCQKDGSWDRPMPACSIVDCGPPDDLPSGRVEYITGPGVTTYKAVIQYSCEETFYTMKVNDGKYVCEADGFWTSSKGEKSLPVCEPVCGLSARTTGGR

| SMILES | Ki (MASP-2 (CCP1-CCP2-SP)) [nM] | Ki (human α-thrombin) [nM] |
| --- | --- | --- |
| Cc1cc(F)cc(CNc2nc(-c3ccccc3)c3n(c2=O)[C@H](C(=O)NCc2ccc(N)nc2C)CC3)c1 [Compound 217, (S)-N-((6-amino-2-methylpyridin-3-yl)methyl)-3-((3-fluoro-5-methylbenzyl)amino)-4-oxo-1-phenyl-4,6,7,8-tetrahydropyrrolo[1,2-a]pyrazine-6-carboxamide trifluoroacetate] | < 500 | > 25000 |
| [2H]C([2H])([2H])c1nc(NCc2cc(C)cc(F)c2)c(=O)n2c1CC[C@H]2C(=O)NCc1ccc(N)nc1C [Compound 218, (S)-N-((6-amino-2-methylpyridin-3-yl)methyl)-3-((3-fluoro-5-methylbenzyl)amino)-1-(methyl-d3)-4-oxo-4,6,7,8-tetrahydropyrrolo[1,2-a]pyrazine-6-carboxamide trifluoroacetate] | < 500 | < 500 |
| Cc1cc(F)cc(CNc2nc(-c3cnn(C(F)F)c3)c3n(c2=O)[C@H](C(=O)NCc2cc4c(s2)CNC4)CC3)c1 [Compound 219, (S)-1-(1-(difluoromethyl)-1H-pyrazol-4-yl)-N-((5,6-dihydro-4H-thieno[2,3-c]pyrrol-2-yl)methyl)-3-((3-fluoro-5-methylbenzyl)amino)-4-oxo-4,6,7,8-tetrahydropyrrolo[1,2-a]pyrazine-6-carboxamide trifluoroacetate] | < 500 | > 25000 |
| Cc1nc(N)ccc1CNC(=O)[C@@H]1CCc2cnc(NCc3cccc(-c4ccccc4)c3)c(=O)n21 [Compound 220, (S)-3-(([1,1′-biphenyl]-3-ylmethyl)amino)-N-((6-amino-2-methylpyridin-3-yl)methyl)-4-oxo-4,6,7,8-tetrahydropyrrolo[1,2-a]pyrazine-6-carboxamide trifluoroacetate] | < 500 | < 500 |
| Cc1cc(F)cc(CNc2nc(C#N)c3n(c2=O)[C@H](C(=O)NCc2ccc(N)nc2C)CC3)c1 [Compound 222, (S)—N-((6-amino-2-methylpyridin-3-yl)methyl)-1-cyano-3-((3-fluoro-5-methylbenzyl)amino)-4-oxo-4,6,7,8-tetrahydropyrrolo[1,2-a]pyrazine-6-carboxamide trifluoroacetate] | < 500 | 2500 to 10000 |
| Cc1ccc(F)c(CNc2nc(C#N)c3n(c2=O)[C@H](C(=O)NCc2ccc(N)nc2C)CC3)c1 [Compound 223, trifluoroacetate] | < 500 | 2500 to 10000 |
| Cc1cc(F)c(F)c(CNc2ncc3n(c2=O)[C@H](C(=O)N[C@H](C)c2ccc(N)nc2)CC3)c1 [Compound 224, (S)—N—((R)-1-(6-aminopyridin-3-yl)ethyl)-3-((2,3-difluoro-5-methylbenzyl)amino)-4-oxo-4,6,7,8-tetrahydropyrrolo[1,2-a]pyrazine-6-carboxamide trifluoroacetate] | < 500 | 2500 to 10000 |
| NCc1ccc(CNC(=O)[C@@H]2CCc3c(Cl)nc(NCc4ccc5c(c4)CCCC5)c(=O)n32)s1 [Compound 225, (S)—N-((5-(aminomethyl)thiophen-2-yl)methyl)-1-chloro-4-oxo-3-(((5,6,7,8-tetrahydronaphthalen-2-yl)methyl)amino)-4,6,7,8-tetrahydropyrrolo[1,2-a]pyrazine-6-carboxamide trifluoroacetate] | < 500 | > 25000 |
| C[C@@H]1C[C@@H](C(=O)NCc2cc3cnccc3[nH]2)n2c1cnc(NCc1ccccc1)c2=O [Compound 227, trifluoroacetate] | < 500 | 2500 to 10000 |
| CC1(C)C[C@@H](C(=O)NCc2cc3cnccc3[nH]2)n2c1c(Cl)nc(NCc1ccccc1)c2=O [Compound 229, (S)-N-((1H-pyrrolo[3,2-c]pyridin-2-yl)methyl)-3-(benzylamino)-1-chloro-8,8-dimethyl-4-oxo-4,6,7,8-tetrahydropyrrolo[1,2-a]pyrazine-6-carboxamide trifluoroacetate] | < 500 | 2500 to 10000 |
| O=C(NCc1cc2cnccc2[nH]1)[C@@H]1CC2(CCCC2)c2c(Cl)nc(NCc3ccccc3)c(=O)n21 [Compound 231, (S)—N-((1H-pyrrolo[3,2-c]pyridin-2-yl)methyl)-3′-(benzylamino)-1′-chloro-4′-oxo-6′,7′-dihydro-4′H-spiro[cyclopentane-1,8′-pyrrolo[1,2-a]pyrazine]-6′-carboxamide trifluoroacetate] | < 500 | 10000 to 25000 |
| Nc1nc(Cl)c2n(c1=O)[C@H](C(=O)NCc1cc3cnccc3[nH]1)CC21CCCC1 [Compound 232, (S)—N-((1H-pyrrolo[3,2-c]pyridin-2-yl)methyl)-3′-amino-1′-chloro-4′-oxo-6′,7′-dihydro-4′H-spiro[cyclopentane-1,8′-pyrrolo[1,2-a]pyrazine]-6′-carboxamide trifluoroacetate] | 500 to 2500 | > 25000 |
| O=C(NCc1cc2cnccc2[nH]1)[C@@H]1CC2(CC=CC2)c2c(Cl)nc(NCc3ccccc3)c(=O)n21 [Compound 233, (S)—N-((1H-pyrrolo[3,2-c]pyridin-2-yl)methyl)-3′-(benzylamino)-1′-chloro-4′-oxo-6′,7′-dihydro-4′H-spiro[cyclopentane-1,8′-pyrrolo[1,2-a]pyrazin]-3-ene-6′-carboxamide trifluoroacetate] | < 500 | > 25000 |
| CC[C@@H](Nc1ncc2n(c1=O)[C@H](C(=O)NCc1cc3c(s1)CNC3)CC2)c1ccccc1 [Compound 234] | < 500 | < 500 |
| O=C(NCc1cc2c(s1)CNC2)[C@@H]1CCc2cnc(NC3CCc4ccccc43)c(=O)n21 (stereo partly shown) [Compound 235] | < 500 | < 500 |
| Nc1ccc2c(n1)CC[C@H]2NC(=O)[C@@H]1CCc2cnc(NCc3cccc(-c4ccccc4)c3)c(=O)n21 [Compound 236] | < 500 | 500 to 2500 |
| Cc1ccc(C)c(CNc2ncc3n(c2=O)[C@H](C(=O)N[C@H](C)c2ccc(N)nc2C)CC3)c1 [Compound 237] | < 500 | 500 to 2500 |
| Cc1cc(C)cc(CNc2ncc3n(c2=O)[C@H](C(=O)N[C@H](C)c2ccc(N)nc2C)CC3)c1 [Compound 238] | < 500 | 500 to 2500 |
| O=C(NCc1cc2cnccc2[nH]1)[C@@H]1CCc2c(Cl)nc(NCCc3cccnc3)c(=O)n21 [Compound 241] | < 500 | < 500 |
| O=C(NCc1cc2c(s1)CNC2)[C@@H]1CCc2c(Cl)nc(NCCc3ccccc3)c(=O)n21 [Compound 242] | < 500 | < 500 |
| N=C(N)c1ccc(CNC(=O)[C@@H]2CCc3c(Cl)nc(NCc4ccccc4)c(=O)n32)cc1 [Compound 243] | < 500 | < 500 |
| COC(CNc1nc(Cl)c2n(c1=O)[C@H](C(=O)NCc1cc3cnccc3[nH]1)CC2)c1ccccc1 (stereo partly shown) [Compound 244] | < 500 | 500 to 2500 |
| O=C(NCc1cc2cnccc2[nH]1)[C@@H]1CCc2c(Cl)nc(NCC3(c4ccccc4)CC3)c(=O)n21 [Compound 245] | < 500 | 500 to 2500 |

Other lines, results leading:

| Ki (MASP-2 (CCP1-CCP2-SP)) [nM] | Ki (human α-thrombin) [nM] | SMILES |
| --- | --- | --- |
| < 500 | > 25000 | O=C(NCc1cc2cnccc2[nH]1)[C@@H]1CCc2c(-c3cn[nH]c3)nc(NCCc3ccccc3)c(=O)n21 [Compound 246] |
| < 500 | 500 to 2500 | O=C(NCc1cc2cnccc2[nH]1)[C@@H]1CCc2c(C3CC3)nc(NCCc3ccccc3)c(=O)n21 [Compound 247] |
| < 500 | < 500 | O=C(NCc1cc2cnccc2[nH]1)[C@@H]1CCc2cnc(NCCc3ccccc3)c(=O)n21 [Compound 248] |
| < 500 | 500 to 2500 | O=C(NCc1cc2cnccc2[nH]1)[C@@H]1CCc2c(Cl)nc(NCCc3ccccc3)c(=O)n21 [Compound 249] |
| 500 to 2500 | 2500 to 10000 | N=C(N)c1ccc(CNC(=O)[C@@H]2CCc3c(Cl)nc(NCCc4ccccc4)c(=O)n32)cc1 [Compound 250] |
| < 500 | 500 to 2500 | O=C(NCc1cc2cnccc2[nH]1)[C@@H]1CCc2c(Cl)nc(NCC3(c4ccccc4)COC3)c(=O)n21 [Compound 251] |
| < 500 | 2500 to 10000 | O=C(NCc1cc2c(s1)CNC2)[C@@H]1CCc2cnc(NCC3(Cc4ccccc4)CCCCC3)c(=O)n21 [Compound 252] |
| < 500 | < 500 | Cc1ccc(C)c([C@@H](C)Nc2ncc3n(c2=O)[C@H](C(=O)NCc2cc4c(s2)CNC4)CC3)c1 [Compound 253, (S)—N-((5,6-dihydro-4H-thieno[2,3-c]pyrrol-2-yl)methyl)-3-(((R)-1-(2,5-dimethylphenyl)ethyl)amino)-4-oxo-4,6,7,8-tetrahydropyrrolo[1,2-a]pyrazine-6-carboxamide] |
| < 500 | 500 to 2500 | O=C(NCc1cc2c(s1)CNC2)[C@@H]1CCc2cnc(N[C@@H]3CCc4ccccc43)c(=O)n21 [Compound 254, (S)-3-(((R)-2,3-dihydro-1H-inden-1-yl)amino)-N-((5,6-dihydro-4H-thieno[2,3-c]pyrrol-2-yl)methyl)-4-oxo-4,6,7,8-tetrahydropyrrolo[1,2-a]pyrazine-6-carboxamide] |
| < 500 | < 500 | CC(C)[C@@H](Nc1ncc2n(c1=O)[C@H](C(=O)NCc1cc3c(s1)CNC3)CC2)c1ccccc1 [Compound 255] |
| < 500 | < 500 | O=C(NCc1cc2c(s1)CNC2)[C@@H]1CCc2cnc(N[C@@H](c3ccccc3)C3CCC3)c(=O)n21 [Compound 256] |
| < 500 | < 500 | CCC[C@@H](Nc1ncc2n(c1=O)[C@H](C(=O)NCc1cc3c(s1)CNC3)CC2)c1ccccc1 [Compound 258] |
